Like-named read-outs stand apart in the source and are kept apart here.
Experiments:
E. coli [1] = format: cell-based
Procedure: The following samples were prepared to measure the oxidation capability: sodium hypochlorite converted concentration and phenol coefficient for each of the chlorine oxides.
These samples were used to measure the oxidation capability: sodium hypochlorite converted concentration and phenol coefficient while appropriately dilution with ion exchange water.
The following sample was prepared. The oxidation capability and phenol coefficient were measured immediately after manufacture and on day 5.
They were compared based on dissolved chlorine dioxide as the control.

E. coli [2] = assay: Phenol coefficient method; format: cell-based
Procedure: The following is the operation method thereof.
5% phenol solution: Phenol is dissolved with hot water of about 70° C. 25 mL is measured out and precisely diluted to 500 mL with water (40° C.). The specific gravity at 20° C. is confirmed to be within the range of 1.000±0.005.
Liquid medium (1 L volume): 18.0 g of normal broth medium is added to 1 L of water in a 1000 mL Erlenmeyer flask with a stopper. They are mixed and dissolved for about 30 minutes at normal temperature.
Liquid medium (volume of 200 mL): about 18.0 g of normal broth medium is added to 1 L of water. They were mixed and dissolved for about 30 minutes at normal temperature.
Liquid medium (test tube): about 18.0 g of normal broth medium is added to 1 L of water. […]
The inoculated test tube is placed in a vortex mixer and sealed, and incubated for 24 hours at 37° C. Test segments observed to have opacity after incubation are recorded as “+” and test segments without opacity are recorded as “−”. However, a cotton swab is immersed in the liquid medium of the test segments evaluated as “+”, and the medium is smeared onto a desoxycholate medium (flat plate) from the center to the outside so as to draw a straight line. […]
After culturing for a predetermined time, samples observed to have a typical red colony where the medium was smeared are evaluated as “+”, and samples with no observed red colony is evaluated as “−”. […]

Row | Molecule | Oxidation capability: sodium hypochlorite converted concentration at each phenol coefficient (E. coli [1]; phenol coefficient 0) | Oxidation capability: sodium hypochlorite converted concentration at each phenol coefficient (E. coli [1]; phenol coefficient 1) | Oxidation capability: sodium hypochlorite converted concentration at each phenol coefficient (E. coli [1]; phenol coefficient 2) | Oxidation capability: sodium hypochlorite converted concentration at each phenol coefficient (E. coli [1]; phenol coefficient 3) | Oxidation capability: sodium hypochlorite converted concentration at each phenol coefficient (E. coli [1]; phenol coefficient 5) | Oxidation capability: sodium hypochlorite converted concentration at each phenol coefficient (E. coli [1]; phenol coefficient 10) | Oxidation capability: sodium hypochlorite converted concentration at each phenol coefficient (E. coli [1]; phenol coefficient 15) | Oxidation capability: sodium hypochlorite converted concentration at each phenol coefficient (E. coli [1]; phenol coefficient 25) | phenol coefficient (E. coli [2]; available chlorine concentration of 25% (w/v), saturation concentration) | phenol coefficient per oxidation capability (100) (E. coli [2]; phenol coefficient divided by oxidation capability and multiplied by 100, from the values of Example 1)
1 | [O][Cl+][O-] [Dissolved chlorine dioxide] | 0 | 139 | 279 | 418 | 697 | 1395 | 2092 | 3487 | – | –
2 | sodium chlorite | 0 | nonexistent | nonexistent | nonexistent | nonexistent | nonexistent | nonexistent | nonexistent | 0 | 0

Reference: patent US11912569B2, “Method for manufacturing chlorous acid water using raw material obtained by salt electrolysis” (HONBUSANKEI CO., LTD., priority 2016, dated 2024)
